Patent US4963588A, “Use of ubenimex for treating myelodysplastic syndrome” (priority 1989, dated 1990)
Where two headings read alike, the source gives them in different places.

Tests used:
[1] = Toxicity, general statement; conditions: acute toxicity table given for reference
[2] = in vivo
[3] = tested on: tumor; conditions: cf. Japanese Pat. Publication (A2) No. 9487/1985; cited from earlier work
[4] = Acute toxicity in mouse; conditions: in vivo, Mouse (ICR)
[5] = tested on: aminopeptidase B; conditions: cf. U.S.P. No. 4,189,604; cited from earlier work
[6] = tested on: RAEB or RAEB-T patients (MDS); assay: Oral administration of the ubenimex capsule to RAEB or RAEB-T (MDS) patients, response observed; type: in vivo; set-up: key to Response: CR: complete remission; GR: good result
[7] = Acute toxicity in beagle; conditions: dog, in vivo, male, oral, * = maximum administration level
[8] = background statement; cited from earlier work
[9] = Acute toxicity in rat; conditions: in vivo, Rat (SD)
[10] = patient 1 (RAEB-T), 30mg/day oral
[11] = patient 2 (RAEB), 30mg/day oral
[12] = patient 3 (RAEB), 30mg/day oral
[13] = patient 4 (RAEB), 30mg/day oral
[14] = patient 5 (RAEB), 30mg/day oral
[15] = patient 6 (RAEB), 30mg/day oral

CC(C)C[C@H](NC(=O)[C@@H](O)[C@H](N)Cc1ccccc1)C(=O)O [ubenimex, N-[(2S, 3R)-3-amono-2-hydroxy-4-phenylbutyryl]-(L)-leucine]
Toxicity [1]: low toxicity
Accumulated toxicity upon repeated administration [2]: low accumulated toxicity
Antitumor activities [3]: has a antitumor activities
LD50 ([4]; ip, female, intraperitoneal): 190 mg/kg
LD50 ([4]; ip, male, intraperitoneal): 190 mg/kg
LD50 ([4]; po, female, * = maximum administration level): > 4000 mg/kg
LD50 ([4]; po, male, * = maximum administration level): > 4000 mg/kg
LD50 ([4]; sc, female, subcutaneous): 1900 mg/kg
LD50 ([4]; sc, male, subcutaneous): 1300 mg/kg
Inhibition of aminopeptidase B [5]: inhibits aminopeptidase B
Effectiveness as a remedy for MDS ([6]; 30mg/day oral): highly effective
RAEB cases with complete remission ([6]; among six effective cases): three
RAEB cases with good responses ([6]; among six effective cases): two
RAEB-T cases with complete remission ([6]; among six effective cases): one
Effect on cytopenia ([6]; anemia, thrombocytopenia and neutropenia): improve cytopenia
Amount of transfusion to the patients ([6]; human, in vivo): reduced or sometimes become unnecessary
Effect on excess blast ([6]; human, in vivo): reduce excess blast
Effect on myelodysplasia ([6]; human, in vivo): improve myelodysplasia
Patients with good results ([6]; of seven RAEB or RAEB-T patients, 30mg/day oral): six
Days till response [6, 10]: 34 days
Response [6, 10]: CR
Peripheral blood Granulocytes No. ([6]; patient 1 (RAEB-T), 30mg/day oral, after treatment (BT 1.11)): 2.94e+09 L⁻¹
Peripheral blood Hemoglobin ([6]; patient 1 (RAEB-T), 30mg/day oral, after treatment (BT 10.5)): 13.6 g/dL
Bone marrow Blast ([6]; patient 1 (RAEB-T), 30mg/day oral, after treatment (BT 22.8)): 3.2%
Peripheral blood Platelets ([6]; patient 1 (RAEB-T), 30mg/day oral, after treatment (BT 350)): 3.72e+11 L⁻¹
Duration of response ([6]; patient 1 (RAEB-T), 30mg/day oral, observation continued): 8 week
Days till response [6, 11]: 28 days
Response [6, 11]: CR
Peripheral blood Granulocytes No. ([6]; patient 2 (RAEB), 30mg/day oral, after treatment (BT 0.62)): 2.44e+09 L⁻¹
Peripheral blood Hemoglobin ([6]; patient 2 (RAEB), 30mg/day oral, after treatment (BT 7.9)): 14.4 g/dL
Bone marrow Blast ([6]; patient 2 (RAEB), 30mg/day oral, after treatment (BT 13.2)): 5.2%
Peripheral blood Platelets ([6]; patient 2 (RAEB), 30mg/day oral, after treatment (BT 81)): 2.09e+11 L⁻¹
Duration of response ([6]; patient 2 (RAEB), 30mg/day oral, ubenimex administration suspended): 11 week
Days till response [6, 12]: 97 days
Response [6, 12]: CR
Peripheral blood Granulocytes No. ([6]; patient 3 (RAEB), 30mg/day oral, after treatment (BT 0.99)): 1.75e+09 L⁻¹
Bone marrow Blast ([6]; patient 3 (RAEB), 30mg/day oral, after treatment (BT 5.2)): 0.4%
Peripheral blood Hemoglobin ([6]; patient 3 (RAEB), 30mg/day oral, after treatment (BT 6.8)): 12.3 g/dL
Peripheral blood Platelets ([6]; patient 3 (RAEB), 30mg/day oral, after treatment (BT 12)): 9.6e+10 L⁻¹
Duration of response ([6]; patient 3 (RAEB), 30mg/day oral, observation continued): 21 week
Days till response [6, 13]: 175 days
Response [6, 13]: CR
Peripheral blood Granulocytes No. ([6]; patient 4 (RAEB), 30mg/day oral, after treatment (BT 2.92)): 2.35e+09 L⁻¹
Bone marrow Blast ([6]; patient 4 (RAEB), 30mg/day oral, after treatment (BT 6.0)): 2.0%
Peripheral blood Hemoglobin ([6]; patient 4 (RAEB), 30mg/day oral, after treatment (BT 7.6)): 11.0 g/dL
Peripheral blood Platelets ([6]; patient 4 (RAEB), 30mg/day oral, after treatment (BT 30)): 8.2e+10 L⁻¹
Duration of response ([6]; patient 4 (RAEB), 30mg/day oral, observation continued): 28 week
Days till response [6, 14]: 134 days
Response [6, 14]: GR
Peripheral blood Granulocytes No. ([6]; patient 5 (RAEB), 30mg/day oral, after treatment (BT 1.22)): 2.44e+09 L⁻¹
Peripheral blood Hemoglobin ([6]; patient 5 (RAEB), 30mg/day oral, after treatment (BT 8.5)): 8.7 g/dL
Peripheral blood Platelets ([6]; patient 5 (RAEB), 30mg/day oral, after treatment (BT 21)): 1.76e+11 L⁻¹
Duration of response ([6]; patient 5 (RAEB), 30mg/day oral, observation continued): 32 week
Days till response [6, 15]: 67 days
Response [6, 15]: GR
Peripheral blood Granulocytes No. ([6]; patient 6 (RAEB), 30mg/day oral, after treatment (BT 1.45)): 2.02e+09 L⁻¹
Peripheral blood Hemoglobin ([6]; patient 6 (RAEB), 30mg/day oral, after treatment (BT 10.9)): 12.2 g/dL
Peripheral blood Platelets ([6]; patient 6 (RAEB), 30mg/day oral, after treatment (BT 42)): 1.86e+11 L⁻¹
Duration of response ([6]; patient 6 (RAEB), 30mg/day oral, observation continued): 20 week
LD50 [7]: > 1200 mg/kg
Toxicity [8]: low toxicity
LD50 ([9]; ip, first line, sex female, intraperitoneal): 900 mg/kg
LD50 ([9]; ip, second line, female, intraperitoneal): 780 mg/kg
LD50 ([9]; po, first line, sex female, * = maximum administration level): > 2000 mg/kg
LD50 ([9]; po, second line, female, * = maximum administration level): > 2000 mg/kg
LD50 ([9]; sc, first line, sex female, subcutaneous): 1900 mg/kg
LD50 ([9]; sc, second line, female, subcutaneous): 2100 mg/kg
